Experimental data: patent US20250163104A1, “MACROCYCLIC IMMUNOMODULATORS” (priority 2021, published 2025)
Where a SMILES comes first, the peptide text is derived from it. Bridges are numbered along the chain shown (N, C = ends). [ ]: non-standard residue; d: D form. The star is where a group is joined. Bip = N[C@@H](Cc1ccc(-c2ccccc2)cc1)C(=O)O; Phe(3-Me) = Cc1cccc(C[C@H](N)C(=O)O)c1; 4Pal = N[C@@H](Cc1ccncc1)C(=O)O; Cha = N[C@@H](CC1CCCCC1)C(=O)O; Cit = NC(=O)NCCC[C@H](N)C(=O)O; Carboxymethyl = O=C(O)C*; Orn = NCCC[C@H](N)C(=O)O; Dab = NCC[C@H](N)C(=O)O; Dap = NC[C@H](N)C(=O)O

Molecular target: T1, human PD-1 / PD-L1-Ig binding on Jurkat cell line over-expressing human PD-1 (Jurkat-PD-1) (Homo sapiens, UniProt Q15116)
T1 construct: expressed in transfected cells; host or cells: Jurkat
T1 sequence (Q15116 25-288): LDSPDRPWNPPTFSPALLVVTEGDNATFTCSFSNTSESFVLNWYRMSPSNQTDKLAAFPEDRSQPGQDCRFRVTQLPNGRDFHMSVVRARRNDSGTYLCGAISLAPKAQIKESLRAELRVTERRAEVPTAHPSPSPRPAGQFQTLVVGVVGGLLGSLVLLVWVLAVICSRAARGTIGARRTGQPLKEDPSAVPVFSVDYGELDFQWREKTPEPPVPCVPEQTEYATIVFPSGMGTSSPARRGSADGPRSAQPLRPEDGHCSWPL
Assay: Jurkat-PD-1 Cell Binding High-Content Screening Assay (CBA)
Assay type: cell-based
Conditions: Jurkat-PD-1 cells, PE-labeled PD-L1-Ig 20 nM final; read-out: Jurkat HPD1_PDL1 IC50
Method in brief: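 Cell-bound PE-labeled PD-L1-Ig (20 nM final, 1 h) measured by high-content imaging after fixation and Hoechst 33342 counterstain. Compound was applied first for 2 h at 37° C. to Jurkat cells over-expressing human PD-1 in DMEM with 10% FCS.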

Structure (SMILES) | IC50 [nM]
Cc1cccc(C[C@@H]2NC(=O)[C@H](CC(=O)O)NC(=O)[C@H](Cc3ccc(OCC(=O)O)cc3)NC(=O)[C@H](CN)NC(=O)CSC[C@@H](C(=O)N[C@@H](C)C(N)=O)NC(=O)[C@H]([C@@H](C)O)NC(=O)[C@H](C(C)C)NC(=O)[C@H](CC3CCCCC3)NC(=O)[C@H](CCN)NC(=O)[C@@H](CC(C)C)NC(=O)[C@H](CCCN)NC(=O)[C@H](CN)NC(=O)[C@H](Cc3ccc(-c4ccccc4)cc3)NC(=O)[C@H](C(C)C)NC2=O)c1 [Compound 1310] ({CH2CO}-[Dap]Y(Carboxymethyl)D[Phe(3-Me)]V[Bip][Dap][Orn][dL][Dab][Cha]VTCA-NH2; thioether N-14) | 12
Cc1cccc(C[C@@H]2NC(=O)[C@H](CC(=O)O)NC(=O)[C@H](Cc3ccc(OCC(=O)O)cc3)NC(=O)[C@H](CN)NC(=O)CSC[C@@H](C(=O)N[C@@H](C)C(N)=O)NC(=O)[C@H]([C@@H](C)O)NC(=O)[C@H](C(C)C)NC(=O)[C@H](CC3CCCCC3)NC(=O)[C@H](CCN)NC(=O)[C@@H](CC(C)C)NC(=O)[C@H](CCCN)NC(=O)[C@H](CCCN)NC(=O)[C@H](Cc3ccc(-c4ccccc4)cc3)NC(=O)[C@H](C(C)C)NC2=O)c1 [Compound 1311] ({CH2CO}-[Dap]Y(Carboxymethyl)D[Phe(3-Me)]V[Bip][Orn][Orn][dL][Dab][Cha]VTCA-NH2; thioether N-14) | 16
CC(C)C[C@H]1NC(=O)[C@H](CCCN)NC(=O)[C@H](C(C)C)NC(=O)[C@H](Cc2ccc(-c3ccccc3)cc2)NC(=O)[C@H](C(C)C)NC(=O)[C@H](Cc2c[nH]c3ccccc23)NC(=O)[C@H](CC(=O)O)NC(=O)[C@H](Cc2ccc(OCC(=O)O)cc2)NC(=O)[C@H](CN)NC(=O)CSC[C@@H](C(=O)N[C@@H](C)C(N)=O)NC(=O)[C@H]([C@@H](C)O)NC(=O)[C@H](C(C)C)NC(=O)[C@H](CC2CCCCC2)NC(=O)[C@H](CCN)NC1=O [Compound 1312] ({CH2CO}-[Dap]Y(Carboxymethyl)DWV[Bip]V[Orn][dL][Dab][Cha]VTCA-NH2; thioether N-14) | 4
CC(C)C[C@@H]1NC(=O)[C@H](Cc2c[nH]c3ccccc23)NC(=O)[C@H](CC(=O)O)NC(=O)[C@H](Cc2ccc(OCC(=O)O)cc2)NC(=O)[C@H](CN)NC(=O)CSC[C@@H](C(=O)N[C@@H](C)C(N)=O)NC(=O)[C@H]([C@@H](C)O)NC(=O)[C@H](C(C)C)NC(=O)[C@H](CC(C)C)NC(=O)[C@H](CCN)NC(=O)[C@@H](CC(C)C)NC(=O)[C@H](CCCN)NC(=O)[C@H](C(C)C)NC(=O)[C@H](Cc2ccc(-c3ccccc3)cc2)NC1=O [Compound 1313] ({CH2CO}-[Dap]Y(Carboxymethyl)DWL[Bip]V[Orn][dL][Dab]LVTCA-NH2; thioether N-14) | 15.7
CC[C@H](C)[C@@H]1NC(=O)[C@H](CC2CCCCC2)NC(=O)[C@H](CCN)NC(=O)[C@@H](CC(C)C)NC(=O)[C@H](CCCN)NC(=O)[C@H](CCCNC(N)=O)NC(=O)[C@H](Cc2ccc(-c3ccccc3)cc2)NC(=O)[C@H](C(C)C)NC(=O)[C@H](Cc2c[nH]c3ccccc23)NC(=O)[C@H](CC(=O)O)NC(=O)[C@H](Cc2ccc(OCC(=O)O)cc2)NC(=O)[C@H](CN)NC(=O)CSC[C@@H](C(=O)N[C@@H](C)C(N)=O)NC(=O)[C@H]([C@@H](C)O)NC1=O [Compound 1314] ({CH2CO}-[Dap]Y(Carboxymethyl)DWV[Bip][Cit][Orn][dL][Dab][Cha]ITCA-NH2; thioether N-14) | 9
CC(C)C[C@H]1NC(=O)[C@H](CCCN)NC(=O)[C@H](CCCNC(N)=O)NC(=O)[C@H](Cc2ccc(-c3ccccc3)cc2)NC(=O)[C@H]([C@@H](C)O)NC(=O)[C@H](Cc2c[nH]c3ccccc23)NC(=O)[C@H](CC(=O)O)NC(=O)[C@H](Cc2ccc(OCC(=O)O)cc2)NC(=O)[C@H](CN)NC(=O)CSC[C@@H](C(=O)N[C@@H](C)C(N)=O)NC(=O)[C@H]([C@@H](C)O)NC(=O)[C@H](C(C)C)NC(=O)[C@H](CC2CCCCC2)NC(=O)[C@H](CCN)NC1=O [Compound 1315] ({CH2CO}-[Dap]Y(Carboxymethyl)DWT[Bip][Cit][Orn][dL][Dab][Cha]VTCA-NH2; thioether N-14) | 18.6
CC[C@H](C)[C@@H]1NC(=O)[C@H](Cc2c[nH]c3ccccc23)NC(=O)[C@H](CC(=O)O)NC(=O)[C@H](Cc2ccc(OCC(=O)O)cc2)NC(=O)[C@H](CN)NC(=O)CSC[C@@H](C(=O)N[C@@H](C)C(N)=O)NC(=O)[C@H]([C@@H](C)O)NC(=O)[C@H](C(C)C)NC(=O)[C@H](CC2CCCCC2)NC(=O)[C@H](CCN)NC(=O)[C@@H](CC(C)C)NC(=O)[C@H](CCCN)NC(=O)[C@H](CCCNC(N)=O)NC(=O)[C@H](Cc2ccc(-c3ccccc3)cc2)NC1=O [Compound 1316] ({CH2CO}-[Dap]Y(Carboxymethyl)DWI[Bip][Cit][Orn][dL][Dab][Cha]VTCA-NH2; thioether N-14) | 9.1
CC[C@H](C)[C@@H]1NC(=O)[C@H](CCN)NC(=O)[C@@H](CC(C)C)NC(=O)[C@H](CCCN)NC(=O)[C@H](CCCNC(N)=O)NC(=O)[C@H](Cc2ccc(-c3ccccc3)cc2)NC(=O)[C@H](C(C)C)NC(=O)[C@H](Cc2c[nH]c3ccccc23)NC(=O)[C@H](CC(=O)O)NC(=O)[C@H](Cc2ccc(OCC(=O)O)cc2)NC(=O)[C@H](CN)NC(=O)CSC[C@@H](C(=O)N[C@@H](C)C(N)=O)NC(=O)[C@H]([C@@H](C)O)NC(=O)[C@H](C(C)C)NC1=O [Compound 1317] ({CH2CO}-[Dap]Y(Carboxymethyl)DWV[Bip][Cit][Orn][dL][Dab]IVTCA-NH2; thioether N-14) | 912
CC(C)C[C@H]1NC(=O)[C@H](CCCN)NC(=O)[C@H](CCCNC(N)=O)NC(=O)[C@H](Cc2ccc(-c3ccccc3)cc2)NC(=O)[C@H](C(C)C)NC(=O)[C@H](Cc2c[nH]c3ccccc23)NC(=O)[C@H](CC(=O)O)NC(=O)[C@H](Cc2ccc(OCC(=O)O)cc2)NC(=O)[C@H](CN)NC(=O)CSC[C@@H](C(=O)N[C@@H](C)C(N)=O)NC(=O)[C@H]([C@@H](C)O)NC(=O)[C@H]([C@@H](C)O)NC(=O)[C@H](CC2CCCCC2)NC(=O)[C@H](CCN)NC1=O [Compound 1318] ({CH2CO}-[Dap]Y(Carboxymethyl)DWV[Bip][Cit][Orn][dL][Dab][Cha]TTCA-NH2; thioether N-14) | 10.6
CC(C)C[C@H]1NC(=O)[C@H](CCCN)NC(=O)[C@H](CCCNC(N)=O)NC(=O)[C@H](Cc2ccc(-c3ccccc3)cc2)NC(=O)[C@H](C(C)C)NC(=O)[C@H](Cc2c[nH]c3ccccc23)NC(=O)[C@H](CC(=O)O)NC(=O)[C@H](Cc2ccc(OCC(=O)O)cc2)NC(=O)[C@H](CN)NC(=O)CSC[C@@H](C(=O)N[C@@H](C)C(N)=O)NC(=O)[C@H](C(C)C)NC(=O)[C@H](C(C)C)NC(=O)[C@H](CC2CCCCC2)NC(=O)[C@H](CCN)NC1=O [Compound 1319] ({CH2CO}-[Dap]Y(Carboxymethyl)DWV[Bip][Cit][Orn][dL][Dab][Cha]VVCA-NH2; thioether N-14) | 49.7
CC[C@H](C)[C@@H]1NC(=O)[C@H](C(C)C)NC(=O)[C@H](CC2CCCCC2)NC(=O)[C@H](CCN)NC(=O)[C@@H](CC(C)C)NC(=O)[C@H](CCCN)NC(=O)[C@H](CCCNC(N)=O)NC(=O)[C@H](Cc2ccc(-c3ccccc3)cc2)NC(=O)[C@H](C(C)C)NC(=O)[C@H](Cc2c[nH]c3ccccc23)NC(=O)[C@H](CC(=O)O)NC(=O)[C@H](Cc2ccc(OCC(=O)O)cc2)NC(=O)[C@H](CN)NC(=O)CSC[C@@H](C(=O)N[C@@H](C)C(N)=O)NC1=O [Compound 1320] ({CH2CO}-[Dap]Y(Carboxymethyl)DWV[Bip][Cit][Orn][dL][Dab][Cha]VICA-NH2; thioether N-14) | 52.7
CC(C)C[C@@H]1NC(=O)[C@H](C(C)C)NC(=O)[C@H](CC2CCCCC2)NC(=O)[C@H](CCN)NC(=O)[C@@H](CC(C)C)NC(=O)[C@H](CCCN)NC(=O)[C@H](CCCNC(N)=O)NC(=O)[C@H](Cc2ccc(-c3ccccc3)cc2)NC(=O)[C@H](C(C)C)NC(=O)[C@H](Cc2c[nH]c3ccccc23)NC(=O)[C@H](CC(=O)O)NC(=O)[C@H](Cc2ccc(OCC(=O)O)cc2)NC(=O)[C@H](CN)NC(=O)CSC[C@@H](C(=O)N[C@@H](C)C(N)=O)NC1=O [Compound 1321] ({CH2CO}-[Dap]Y(Carboxymethyl)DWV[Bip][Cit][Orn][dL][Dab][Cha]VLCA-NH2; thioether N-14) | 78.6
CC(C)C[C@@H]1NC(=O)[C@H](CC2CCCCC2)NC(=O)[C@H](CCN)NC(=O)[C@@H](CC(C)C)NC(=O)[C@H](CCCN)NC(=O)[C@H](CCCNC(N)=O)NC(=O)[C@H](Cc2ccc(-c3ccccc3)cc2)NC(=O)[C@H](C(C)C)NC(=O)[C@H](Cc2c[nH]c3ccccc23)NC(=O)[C@H](CC(=O)O)NC(=O)[C@H](Cc2ccc(OCC(=O)O)cc2)NC(=O)[C@H](CN)NC(=O)CSC[C@@H](C(=O)N[C@@H](C)C(N)=O)NC(=O)[C@H]([C@@H](C)O)NC1=O [Compound 1322] ({CH2CO}-[Dap]Y(Carboxymethyl)DWV[Bip][Cit][Orn][dL][Dab][Cha]LTCA-NH2; thioether N-14) | 21.3
CC(C)C[C@@H]1NC(=O)[C@H](CCN)NC(=O)[C@@H](CC(C)C)NC(=O)[C@H](CCCN)NC(=O)[C@H](CCCNC(N)=O)NC(=O)[C@H](Cc2ccc(-c3ccccc3)cc2)NC(=O)[C@H](C(C)C)NC(=O)[C@H](Cc2c[nH]c3ccccc23)NC(=O)[C@H](CC(=O)O)NC(=O)[C@H](Cc2ccncc2)NC(=O)[C@H](Cc2ccc(OCC(=O)O)cc2)NC(=O)CSC[C@@H](C(=O)N[C@@H](C)C(N)=O)NC(=O)[C@H]([C@@H](C)O)NC(=O)[C@H](C(C)C)NC1=O [Compound 1323] ({CH2CO}-Y(Carboxymethyl)[4Pal]DWV[Bip][Cit][Orn][dL][Dab]LVTCA-NH2; thioether N-14) | 29.4
